Test results: ChEMBL document CHEMBL1128401, “Structure-activity relationships in the 8-amino-6,7,8,9-tetrahydro-3H-benz[e]indole ring system. 1. Effects of substituents in the aromatic system on serotonin and dopamine receptor subtypes” (J Med Chem, 1995)
Values belong to the molecule of their own block, whether it stands above or below them. Active and inactive are the calls of the source. No cut-off for these calls is given here.

Tests used:
Rattus norvegicus [1] = experiment: The Compound was tested in vivo for DOPA accumulation in limbic system against reserpine-pretreated rats; P=significant partial reduction only at the highest dose tested (50).; assay type: functional, organism-based
[2] = target: 5-hydroxytryptamine receptor 1D (Homo sapiens, UniProt P28221); experiment: Binding affinity against 5-hydroxytryptamine 1D receptor alpha expressed in CHO-K1 cells, using [3H]-5-HT as the radioligand.; assay type: cell-based
Chain of 5-hydroxytryptamine receptor 1D (P28221 whole entry): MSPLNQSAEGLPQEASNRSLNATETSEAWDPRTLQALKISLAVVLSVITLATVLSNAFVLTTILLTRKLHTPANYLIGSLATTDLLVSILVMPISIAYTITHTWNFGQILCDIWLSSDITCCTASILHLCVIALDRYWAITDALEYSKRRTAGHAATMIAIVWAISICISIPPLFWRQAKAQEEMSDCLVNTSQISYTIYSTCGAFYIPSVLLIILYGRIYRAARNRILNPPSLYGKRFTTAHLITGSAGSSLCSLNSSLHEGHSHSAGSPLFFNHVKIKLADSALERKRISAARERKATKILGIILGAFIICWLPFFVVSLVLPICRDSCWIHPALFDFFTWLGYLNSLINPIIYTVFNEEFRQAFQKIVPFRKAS

Rattus norvegicus [3] = experiment: Compound was tested in vivo for 5-HTP accumulation in corpus striatum against reserpine-pretreated rats; P=significant partial reduction only at the highest dose tested (50).; assay type: functional, organism-based
[4] = target: 5-hydroxytryptamine receptor 1B (Homo sapiens, UniProt P28222); experiment: Binding affinity against 5-hydroxytryptamine 1D receptor beta expressed in CHO-K1 cells, using [3H]5-HT as the radioligand.; assay type: cell-based
Chain of 5-hydroxytryptamine receptor 1B (P28222 whole entry): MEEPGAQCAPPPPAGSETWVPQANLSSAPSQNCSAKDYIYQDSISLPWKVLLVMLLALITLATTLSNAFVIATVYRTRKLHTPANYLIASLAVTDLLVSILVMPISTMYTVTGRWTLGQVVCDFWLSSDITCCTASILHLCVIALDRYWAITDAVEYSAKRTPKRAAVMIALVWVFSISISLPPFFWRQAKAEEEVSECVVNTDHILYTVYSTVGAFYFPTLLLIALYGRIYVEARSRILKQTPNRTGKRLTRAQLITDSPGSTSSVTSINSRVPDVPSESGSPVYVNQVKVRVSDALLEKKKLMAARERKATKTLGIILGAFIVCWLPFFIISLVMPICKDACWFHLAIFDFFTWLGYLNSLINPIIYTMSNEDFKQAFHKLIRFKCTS

Rattus norvegicus [5] = experiment: The Compound was tested in vivo for DOPA accumulation in hemispheres (cortex) against reserpine-pretreated rats; P=significant partial reduction only at the highest dose tested (50).; assay type: functional, organism-based
Rattus norvegicus [6] = experiment: Compound was tested in vivo for 5-HTP accumulation in hemispheres (cortex) against reserpine-pretreated rats; P=significant partial reduction only at the highest dose tested (50).; assay type: functional, organism-based
[7] = target: T1, 5-hydroxytryptamine receptor 1A (Rattus norvegicus, UniProt P19327); experiment: Binding affinity against 5-hydroxytryptamine 1A receptor from CHO-K1 cells, using [3H]8-OH-DPAT as the radioligand.; assay type: cell-based
T1 sequence (P19327 whole entry): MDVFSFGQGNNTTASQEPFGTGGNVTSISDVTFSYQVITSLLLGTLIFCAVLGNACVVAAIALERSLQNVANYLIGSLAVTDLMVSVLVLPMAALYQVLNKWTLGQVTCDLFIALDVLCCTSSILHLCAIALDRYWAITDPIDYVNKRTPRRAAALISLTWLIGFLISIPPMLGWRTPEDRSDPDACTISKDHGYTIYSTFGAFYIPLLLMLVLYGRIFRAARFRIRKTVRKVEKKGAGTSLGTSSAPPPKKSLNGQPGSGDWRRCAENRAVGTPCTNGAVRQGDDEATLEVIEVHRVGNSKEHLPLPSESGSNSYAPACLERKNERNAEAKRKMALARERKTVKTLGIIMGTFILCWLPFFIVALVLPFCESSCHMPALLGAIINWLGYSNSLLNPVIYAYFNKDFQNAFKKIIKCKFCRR

Rattus norvegicus [8] = experiment: Compound was tested in vivo for DOPA accumulation in corpus striatum against reserpine-pretreated rats;P= significant partial reduction only at the highest dose tested (50).; assay type: functional, organism-based
Rattus norvegicus [9] = experiment: Compound was tested in vivo for 5-HTP accumulation in limbic system against reserpine-pretreated rats; P=significant partial reduction only at the highest dose tested (50).; assay type: functional, organism-based
D(2) dopamine receptor [10] = target: T2, D(2) dopamine receptor (Rattus norvegicus, UniProt P61169); settings: cho-k1
T2 sequence (P61169 whole entry): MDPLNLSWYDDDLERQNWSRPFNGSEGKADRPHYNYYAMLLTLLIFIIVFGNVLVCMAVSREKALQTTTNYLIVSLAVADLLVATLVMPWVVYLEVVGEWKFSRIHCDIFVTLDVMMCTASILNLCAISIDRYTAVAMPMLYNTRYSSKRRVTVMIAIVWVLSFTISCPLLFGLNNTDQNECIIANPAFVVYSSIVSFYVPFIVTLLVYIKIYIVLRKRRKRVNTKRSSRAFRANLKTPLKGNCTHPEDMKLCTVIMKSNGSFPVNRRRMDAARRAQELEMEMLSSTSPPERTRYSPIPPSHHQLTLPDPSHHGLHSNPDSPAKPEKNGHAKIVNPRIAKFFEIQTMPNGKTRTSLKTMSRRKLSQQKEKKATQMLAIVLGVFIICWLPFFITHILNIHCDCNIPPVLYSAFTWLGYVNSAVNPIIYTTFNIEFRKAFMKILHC

Rattus norvegicus [11] = experiment: Compound was tested in vivo for 5-HTP accumulation in hemispheres (cortex) against reserpine-pretreated rats; P=significant partial reduction only at the highest dose tested (12.5).; assay type: functional, organism-based
D(3) dopamine receptor [12] = target: T3, D(3) dopamine receptor (Rattus norvegicus, UniProt P19020); experiment: Binding affinity against Dopamine receptor D3 expressed in CHO-K1 cells, using [3H]spiperone as the radioligand.; assay type: cell-based
T3 sequence (P19020 whole entry): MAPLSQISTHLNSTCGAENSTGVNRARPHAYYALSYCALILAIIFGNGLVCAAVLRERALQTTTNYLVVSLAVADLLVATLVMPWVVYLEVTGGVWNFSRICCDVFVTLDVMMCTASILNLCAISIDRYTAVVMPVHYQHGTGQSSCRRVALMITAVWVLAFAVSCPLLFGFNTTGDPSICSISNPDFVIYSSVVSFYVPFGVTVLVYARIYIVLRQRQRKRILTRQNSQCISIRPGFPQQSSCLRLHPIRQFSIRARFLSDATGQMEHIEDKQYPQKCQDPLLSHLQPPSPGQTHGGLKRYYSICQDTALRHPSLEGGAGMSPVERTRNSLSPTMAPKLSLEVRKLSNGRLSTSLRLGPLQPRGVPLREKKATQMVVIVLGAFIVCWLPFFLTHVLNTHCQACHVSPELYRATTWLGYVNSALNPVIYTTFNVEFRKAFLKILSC

Rattus norvegicus [13] = experiment: In vivo for DOPA accumulation in limbic system against reserpine-pretreated rats.; assay type: functional
Rattus norvegicus [14] = experiment: The Compound was tested in vivo for DOPA accumulation in hemispheres (cortex) against reserpine-pretreated rats;I= inactive at the highest dose tested (25); assay type: functional, organism-based
D(2) dopamine receptor [15] = target: T2, D(2) dopamine receptor; experiment: Binding affinity against Dopamine receptor D2 expressed in CHO-K1 cells, using [3H]U-86170 as the radioligand.; assay type: cell-based
Rattus norvegicus [16] = experiment: In vivo for 5-HTP accumulation in limbic system against reserpine-pretreated rats.; assay type: functional
Rattus norvegicus [17] = experiment: In vivo for DOPA accumulation in corpus striatum against reserpine-pretreated rats.; assay type: functional
Rattus norvegicus [18] = experiment: In vivo for 5-HTP accumulation in corpus striatum against reserpine-pretreated rats.; assay type: functional
D(2) dopamine receptor [19] = target: T2, D(2) dopamine receptor; experiment: Binding affinity against Dopamine receptor D2 from CHO-K1 cells, using [3H]U-86,170 as the radioligand.; assay type: cell-based
D(3) dopamine receptor [20] = target: T3, D(3) dopamine receptor; experiment: Binding affinity against Dopamine receptor D3 from CHO-K1 cells, using [3H]spiperone as the radioligand.; assay type: cell-based; settings: read-out: Ki
Rattus norvegicus [21] = experiment: The compound was tested in vivo for DOPA accumulation in limbic system against reserpine-pretreated rats;I= inactive at the highest dose tested; assay type: functional, organism-based
Rattus norvegicus [22] = experiment: The compound was tested in vivo for DOPA accumulation in hemispheres (cortex) against reserpine-pretreated rats;I= inactive at the highest dose tested; assay type: functional, organism-based
Rattus norvegicus [23] = experiment: compound was tested in vivo for DOPA accumulation in corpus striatum against reserpine-pretreated rats;I= inactive at the highest dose tested; assay type: functional, organism-based
Rattus norvegicus [24] = experiment: compound was tested in vivo for DOPA accumulation in corpus striatum against reserpine-pretreated rats; assay type: functional
Rattus norvegicus [25] = experiment: The Compound was tested in vivo for DOPA accumulation in hemispheres (cortex) against reserpine-pretreated rats; I=inactive at the highest dose tested (3.1).; assay type: functional, organism-based
Rattus norvegicus [26] = experiment: Compound was tested in vivo for DOPA accumulation in corpus striatum against reserpine-pretreated rats;I= inactive at the highest dose tested (3.1).; assay type: functional, organism-based
Rattus norvegicus [27] = experiment: The Compound was tested in vivo for DOPA accumulation in limbic system against reserpine-pretreated rats; P=significant partial reduction only at the highest dose tested (3.1).; assay type: functional, organism-based
D(3) dopamine receptor [28] = target: T3, D(3) dopamine receptor; experiment: Compound was tested for binding affinity against Dopamine receptor D3 expressed in CHO-K1 cells, using [3H]spiperone as the radioligand; I= inactive at the highest dose tested (12.5).; assay type: cell-based
Rattus norvegicus [29] = experiment: Compound was tested in vivo for DOPA accumulation in corpus striatum against reserpine-pretreated rats; I=inactive at the highest dose tested (12.5).; assay type: functional, organism-based
Rattus norvegicus [30] = experiment: The Compound was tested in vivo for DOPA accumulation in limbic system against reserpine-pretreated rats;I= inactive at the highest dose tested (12.5).; assay type: functional, organism-based
Rattus norvegicus [31] = experiment: The Compound was tested in vivo for DOPA accumulation in limbic system against reserpine-pretreated rats; inactive at the highest dose tested (12.5).; assay type: functional, organism-based
Rattus norvegicus [32] = experiment: Compound was tested in vivo for 5-HTP accumulation in limbic system against reserpine-pretreated rats;I= inactive at the highest dose tested (12.5).; assay type: functional, organism-based
Rattus norvegicus [33] = species: Rattus norvegicus; experiment: Compound was tested for binding affinity against D2 receptor expressed in CHO-K1 cells, using [3H]U-86170 as the radioligand; I=inactive (less than 50% inhibition at 1 uM).
Rattus norvegicus [34] = species: Rattus norvegicus; experiment: Compound was tested for binding affinity against D3 receptor expressed in CHO-K1 cells, using [3H]spiperone as the radioligand;I= inactive (less than 50% inhibition at 1 uM).
Rattus norvegicus [35] = experiment: The Compound was tested in vivo for DOPA accumulation in hemispheres (cortex) against reserpine-pretreated rats;I= inactive at the highest dose (12.5); assay type: functional, organism-based
[36] = tmax in hours at a iv dose of 54.0(pmol/g/h).; assay type: ADME, organism-based; settings: in vivo
Rattus norvegicus [37] = experiment: Bioavailability in male Sprague-Dawley rats, after the iv administration at a dose of 54.0(pmol/g/h); assay type: ADME, organism-based; settings: in vivo
Rattus norvegicus [38] = experiment: In vivo for 5-HTP accumulation in hemispheres (cortex) against reserpine-pretreated rats.; assay type: functional
[39] = tmax in hours at a dose of 10.0(pmol/g/h).; assay type: ADME
[40] = Bioavailability in rat plasma following iv/po dose; assay type: ADME, organism-based
Rattus norvegicus [41] = experiment: Bioavailability in male Sprague-Dawley rats, after the po administration at a dose of 10.0(pmol/g/h); assay type: ADME, organism-based; settings: in vivo

Ki ([2]; read-out: Ki): 87 nM
Ki ([4]; read-out: Ki): 552 nM
Ki [7]: 24 nM
Ki (D(2) dopamine receptor [10]): Not Active
Compound: CCCN(CCC)C1CCc2ccc3[nH]cc(C(=O)C(N)=O)c3c2C1 (stereo not drawn)
ED50 (Rattus norvegicus [1]): Weak activity
ED50 (Rattus norvegicus [3]): Weak activity
ED50 (Rattus norvegicus [5]): Weak activity
ED50 (Rattus norvegicus [6]): Weak activity
ED50 (Rattus norvegicus [8]): Weak activity
ED50 (Rattus norvegicus [9]): Weak activity

Compound: CCCN(CCC)C1CCc2ccc3[nH]cc(SC)c3c2C1 (stereo not drawn)
Ki ([2]; read-out: Ki): 18 nM
ED50 (Rattus norvegicus [11]): Weak activity
Ki (D(3) dopamine receptor [12]): 55 nM
Ki ([4]; cho-k1): Not Active
ED50 (Rattus norvegicus [13]): 7.11 µmol/kg
ED50 (Rattus norvegicus [14]): inactive
Ki (D(2) dopamine receptor [15]): 33 nM
ED50 (Rattus norvegicus [16]): 10 µmol/kg
Ki [7]: 13 nM
ED50 (Rattus norvegicus [17]): 5.23 µmol/kg
ED50 (Rattus norvegicus [18]): 10.2 µmol/kg

Compound: CCCN(CCC)[C@@H]1CCc2ccc3[nH]cc(C=O)c3c2C1
Ki (D(2) dopamine receptor [19]): 17 nM
Ki ([2]; read-out: Ki): 31 nM
Ki (D(3) dopamine receptor [20]): 51 nM
ED50 (Rattus norvegicus [21]): inactive
Ki ([4]; read-out: Ki): 210 nM
ED50 (Rattus norvegicus [22]): inactive
ED50 (Rattus norvegicus [23]): inactive

Compound: CCCN(CCC)C1CCc2ccc3[nH]cc(C=O)c3c2C1 (stereo not drawn)
Ki ([2]; read-out: Ki): 173 nM
Ki (D(3) dopamine receptor [20]): 70 nM
Ki ([4]; read-out: Ki): 364 nM
ED50 (Rattus norvegicus [24]): 3.34 µmol/kg
ED50 (Rattus norvegicus [22]): inactive

Compound: CCCN(CCC)[C@@H]1CCc2ccc3[nH]cc(C#N)c3c2C1
ED50 (Rattus norvegicus [25]): inactive
ED50 (Rattus norvegicus [26]): inactive
Ki ([2]; read-out: Ki): 6.7 nM
Ki (D(3) dopamine receptor [12]): 45 nM
Ki ([4]; read-out: Ki): 26 nM
Ki (D(2) dopamine receptor [15]): 22 nM
ED50 (Rattus norvegicus [27]): Weak activity
Ki [7]: 0.8 nM

Ki (D(3) dopamine receptor [28]): Not Active
Ki ([2]; cho-k1): Not Active
Ki ([4]; cho-k1): Not Active
Ki [7]: 113 nM
Ki (D(2) dopamine receptor [10]): Not Active
Compound: CCCN(CCC)C1CCc2ccc3[nH]cc(CN(C)C)c3c2C1 (stereo not drawn)
ED50 (Rattus norvegicus [29]): inactive
ED50 (Rattus norvegicus [30]): inactive
ED50 (Rattus norvegicus [31]): inactive
ED50 (Rattus norvegicus [32]): inactive
Ki (Rattus norvegicus [33]): inactive
Ki (Rattus norvegicus [34]): inactive

Compound: CCCN(CCC)C1CCc2cc(F)c3[nH]cc(C#N)c3c2C1 (stereo not drawn)
Ki (D(2) dopamine receptor [19]): 72 nM
Ki ([2]; read-out: Ki): 8.6 nM
ED50 (Rattus norvegicus [35]): inactive
Tmax [36]: 2 h
Ki (D(3) dopamine receptor [20]): 63 nM
AUC (Rattus norvegicus [37]): 238 pM ml-1
Ki ([4]; read-out: Ki): 121 nM
ED50 (Rattus norvegicus [13]): 0.55 µmol/kg
ED50 (Rattus norvegicus [16]): 0.52 µmol/kg
ED50 (Rattus norvegicus [38]): 0.46 µmol/kg
Ki [7]: 2.3 nM
Tmax [39]: 33 h
bioavailability [40]: 8.1%
ED50 (Rattus norvegicus [17]): 2.1 µmol/kg
ED50 (Rattus norvegicus [18]): 0.43 µmol/kg
AUC (Rattus norvegicus [41]): 48 pM ml-1
